Experimental findings from US20250388571A1, “AMP-ACTIVATED PROTEIN KINASE MODULATOR COMPOUNDS AND USES THEREOF” (Biolexis Therapeutics, Inc., priority 2024, published 2025) are described below.

Entries after “also recorded” stand apart in the source; their conditions may differ.

Data set [1] is described as follows: PK oral bioavailability experiment, mouse. The data set is classed as in vivo, male Swiss Albino Mouse. Conditions: 1 mg/kg intravenous, 5 mg/kg oral. The method, then: A total of 24 male Swiss albino mouse were allotted for the study, Animals were allotted to 2 groups containing 12 mice/group, on day of dosing all the animals were fasted 3 hours before dosing. The test formulation was administered as a single dose by intravenous and oral route via tail vein and oral gavage needle at a dose of 1 and 5 mg/kg with a dose volume of 5 and 10 mL/kg, respectively.
Approximately 0.1 mL of blood sample from each animal was collected via retro orbital at predetermined time points (3 animals/Timepoint) in pre-labeled Eppendorf tubes containing anticoagulant. After blood collection at 0.5 h and 1 h, after collection of CSF, whole blood was withdrawn, and brain tissue was collected as a terminal sampling. Blood samples were centrifuged at 10000 rpm for 5 min under refrigeration (2-4° C.) within 0.5 h to obtain plasma. The separated plasma samples were collected in pre labeled tubes within 60 min of separation and stored at −20° C. up to 24 h. Post 24 h sample collection, all plasma samples were transferred to deep freezer custodian to store below or at −70° C. until shipment.
Similarly, CSF and Brain were collected at 0.5 h and 1h time point by scarification. Tissues were blotted and dried and then transferred to 15 mL falcon tubes. Initially all tissue samples were stored at −20±3° C. Later all brain tissue samples were homogenized with PBS at 1:4 ratio and the brain homogenate were transferred to deep freezer (−70±10° C.) and stored.
The PK parameters were evaluated using Phoenix WinNonlin® Ent-Version 8.3 by non-compartmental analysis.

In data set [2] the test system is AMPK signal pathway in L6 cells. The data set is described as follows: Western blot assay, L6 cells. (A western blot detects proteins with antibodies after separation by electrophoresis.)
Protocol: Samples for immunoblotting studies were prepared for electrophoresis by adding in a final concentration of 1× Laemmli loading buffer (supplemented with 5% 2-mercaptoethanol). Samples were then electrophorized by SDS-PAGE (4-15% or 4-20% Criterion TGX Precast gel, Bio-Rad) at a constant voltage within the range of 140V. Proteins were transferred to a nitrocellulose membrane (Bio-Rad) using the Trans-Blot Turbo transfer system (Bio-Rad). Membranes were blocked with 5% BSA in TBST for a minimum of 1 hour at room temperature before incubating with the following primary antibodies: • Phospho-AMPKα (Thr172) (40H9) Rabbit mAb (CST, cat no: 2535S), • AMPKα Antibody (CST, cat no: 2532S) • Phospho-Raptor (Ser792) Antibody (CST, cat no: 2083S) • Raptor (24C12) Rabbit mAb (CST, cat no: 2280S) • Phospho-Acetyl-CoA Carboxylase (Ser79) Antibody (CST, cat no: 3661S) • Acetyl-CoA Carboxylase Antibody (CST, cat no: 3662S) • AMPKα2 Antibody (CST, cat no: 2757S) • AMPKβ1 antibody (CST, cat no: 12063) • AMPKβ2 Antibody (CST, CST, cat no: 4148S) • AMPKγ3 Antibody (CST, cat no: 2550S). […]
After differentiation of cells (e.g., HSKM, C2C12, L6) for 5 days, medium was changed to DHEM without FBS and glucose for starving cells for 2 hours. […] The resultant reaction mixture was then assayed and semi-quantitative histogram analysis of Western Blotting (signal value) was used to determine results.
The test system of data set [3] is AMPK signal pathway in HSKM cells. The data set can be described thus: Western blot assay, HSKM cells. The data set is classed as cell-based, human.
For data set [4], the system named is Human white preadipocyte (HWP) cells. The data set is described as follows: Glucose uptake assay, human white preadipocyte cells. The data set is classed as cell-based. On the procedure:
(§1) FIGS. 5-8 show results for glucose update assays in Human white preadipocyte (HWP) cells (Promocell, cat. No. C-12735) when treated with compound I-11 (FIG. 5), compound I-7 (FIG. 6), MK-8722 (FIG. 7), and PF-06409577 (FIG. 8). HWP cells (subcutaneous upper arm of obese patient) were starved for 3 hours in DMEM without FBS, treated with the components noted above in […] DMEM without FBS/glucose for 1 hour, and glucose uptake was detected using a glucose uptake kit (Promega). […] The bars show (from left to right) concentrations of 100 μM, 33 μM, 11 μM, 3.7 μM, 1.23 μM, 0.41 μM, 0.14 μM, 0.045 μM, 0.015 μM, 0.005 μM, 0 μM, and insulin.
as §1, with “9-12” for “5-8”, “9),” for “5),”, “10),” for “6),”, “11),” for “7),”, “12).” for “8).”, “(abdomen cells)” for “(subcutaneous upper arm of obese patient)”
Human skeletal myoblasts were obtained (Thermofisher; BYU) and cultured in DMEM/F12 medium with 10% FBS. For differentiation, 2% horse serum low glucose DMEM medium was employed for 72 hours. Human cardiomyocytes cells (HCM cells; Promocell) were cultured in myocyte growth medium (Promocell). Human preadipocyte HWP-c cells (Promocell) were obtained from upper arm of diabetic II donor. Human preadipocyte HWP-c cells (Promocell) were obtained from abdomen of diabetic II donor. For differentiating human preadipocytes, cells were cultured in preadipocyte growth medium to total confluency stage. The growth medium was replaced with preadipocyte differentiation medium for 72 hours, then changed to PromoCell adipocyte nutrition medium to complete the differentiation process. THLE-2 cells were cultured in BEGM from Lonza/Clonetics Corporation, Walkersville, MD 21793 (BEGM Bullet Kit; CC3170). HepG2, L6 and C2Cl2 cells were cultured in EMEM medium.
After differentiation myoblasts, preadipocyte cells were starved by removing the medium and adding 100 μL DMEM without serum. The medium was then replaced with 100 μL DMEM±1 μM insulin at indicated concentration of representative compounds without serum or glucose. The cells were then incubated for 1 hour at 37° C. in 5% CO2. The cells were then removed from the medium and 50 μL of 0.1 mM 2DG in PBS was added. Cells were incubated for 30 minutes at 25° C. 25 μL of Stop Buffer was added and samples were mixed. 25 μL of Neutralization Buffer was then added and mixed. 100 μL of 2DG6P Detection Reagent was then added and mixed. Samples were then incubated for 1 hour at 25° C. Luminescence was then recorded with 0.3-1 second integration on a luminometer.

Data set [5] deals with human skeletal muscle cells (HSKM cells). The data set can be described thus: Glucose uptake assay, human skeletal muscle cells. The data set is classed as cell-based.
Another data set relates to HCM cells. The data set is described as follows: CyQUANT Cytotoxicity Assay (G6PD assay), HCM. Conditions: treated 2 hours.

Consider `O=c1[nH]c(-c2c[nH]c3cc(F)c(-c4ccc(C5(O)CCC5)cc4)c(F)c23)no1` [Compound I-11, 3-(4,6-difluoro-5-(4-(1-hydroxycyclobutyl)phenyl)-1H-indol-3-yl)-1,2,4-oxadiazol-5(4H)-one], for which, in data set [1], the clearance entry is reported as “low clearance”, the elimination entry is listed as “biphasic elimination” and the systemic exposure entry is “moderate systemic exposure”. Besides, in data set [2], the pAMPK/pACC/AMPKα2γ3 expression entry is reported as “can also induce”. Besides, in data set [3] (HSKM cells), the AMPK isoform expression result was “increased AMPKα2β1γ3 expression” and the “potency compared with reference compound MK-8722 (p-ACC, p-AMPK)” value is reported as “more potency activity”. Further, the “p-ACC and p-AMPK induction” value in data set [3] (HSKM cells, 1 hour) is listed as “dosage-dependent manner”. The “p-AMPK, p-ACC, and p-Raptor expression” value in data set [3] (some high dosage groups, cell type not given) was “could induce”. In addition, the “dose dependence of glucose uptake (printed: activates insulin)” value in data set [4] (HWP cells, subcutaneous upper arm of obese patient, 100 μM to 0.005 μM, 1 hour) is recorded as “dose dependent manner”. In data set [4] (human adipocyte cells / HWP-c cells, donor site not stated), the glucose uptake result is “induced glucose uptake; also recorded: dosage-dependent manner”. The “glucose uptake compared with reference compounds, based on RLU values” in data set [5] is on record as “much more glucose uptake compared with reference compounds”. In addition, in data set [5] (100 μM to 0.005 μM, 1 hour), the “dose dependence of glucose uptake (printed: activation of insulin / AMPK activation)” value is “dose-dependent manner; also recorded: dose dependence”. The glucose uptake entry in data set [5] (starved, treated 1 hour) is listed as “induced glucose uptake; also recorded: increased glucose uptake”. Besides, the “toxicity compared to reference compounds MK-8722 and PF-06409577 (G6PD release)” value in the data set on HCM cells was “less toxicity”.
